# Tests used:
# TEL-KIT/V559G-BaF3 = test: Proliferation of TEL-KIT/V559G-BaF3 cells (CCK-8); format: cell-based; conditions: Mus musculus; 72 hours, CCK-8; read-out: GI50 TEL-KIT/V559G-BaF3
# Excerpt: (§1) Compounds as provided herein were further evaluated for their inhibitory effects on proliferation of cancer cells by testing their effects on growth of cancer cells. In this example the following cells were used: primary mouse B cells BaF3 (purchased from ATCC), GIST-T1 cells of the human gastrointestinal stromal tumor cell line (expressing wild-type KIT gene) (purchased from Cosmo Bio Co., Ltd. (Japan)). The present lab further constructed and used the following: mouse Tel-Kit-BaF3 (stably expressing KIT wild-type kinase), mouse Tel-Kit/T670I-BaF3 (stably expressing KIT T670I mutant kinase), mouse Tel-Kit/V559A-BaF3 (stably expressing KIT V559A mutant kinase), mouse Tel-Kit/V559D-BaF3 (stably expressing KIT V559D mutant kinase), mouse Tel-Kit/V559G-BaF3 (stably expressing KIT V559G mutant kinase), mouse Tel-Kit/V560D-BaF3 (stably expressing KIT V560D mutant kinase), mouse Tel-Kit/L576P-BaF3 (stably expressing KIT L576P mutant kinase), mouse Tel-Kit/V654A-BaF3 (stably expressing KIT V654A mutant kinase), mouse Tel-Kit/V654A/V559D-BaF3 (stably expressing KIT V654A V559D mutant kinase), mouse Tel-Kit/T670E-BaF3 (stably expressing KIT T670E mutant kinase), mouse Tel-Kit/T670I/V559D-BaF3 (stably expressing KIT T670I V559D mutant kinase), mouse Tel-Kit/S709F-BaF3 (stably expressing KIT S709F mutant kinase), mouse Tel-Kit/D816E-BaF3 (stably expressing KIT D816E mutant kinase), mouse Tel-Kit/D816H-BaF3 (stably expressing KIT D816H mutant kinase), mouse Tel-Kit/D820E-BaF3 (stably expressing KIT D820E mutant kinase), mouse Tel-Kit/D820G-BaF3 (stably expressing KIT D820G mutant kinase), mouse Tel-Kit/D820Y-BaF3 (stably expressing KIT D820Y mutant kinase), mouse Tel-Kit/N822K-BaF3 (stably expressing KIT N822K mutant kinase), mouse Tel-Kit/Y823D-BaF3 (stably expressing KIT Y823D mutant kinase), mouse Tel-Kit/A829P-BaF3 (stably expressing KIT A829P mutant kinase), GIST-T1-T670I cells of the human gastrointestinal stromal tumor cell line (expressing KIT-T670I mutant gene). The above cell lines were constructed by: amplifying respectively the sequences of human KIT and various mutant kinase regions of KIT via PCR, inserting the fragments respectively into MSCV-Puro vectors having a N-terminal TEL fragment and/or a NPM fragment and/or a TPR fragment (purchased from Clontech), transfecting mouse BaF3 cells with the vectors by means of retrovirus to obtain stably transfected cells, removing the growth factor IL-3, and thereby eventually obtaining cell lines that depend on the transferred protein KIT or various mutants of KIT. […]
# TEL-KIT/Y823D-BaF3 = test: Proliferation of TEL-KIT/Y823D-BaF3 cells (CCK-8); format: cell-based; conditions: Mus musculus; 72 hours, CCK-8; read-out: GI50 TEL-KIT/Y823D-BaF3
# Excerpt: as §1
# GIST-T1 = test: Proliferation of GIST-T1 cells (CCK-8); format: cell-based; conditions: Homo sapiens, GISTT1; 72 hours, CCK-8; read-out: GI50 GIST-T1
# Excerpt: as §1, with “gene).” for “gene). The above cell lines were constructed by: amplifying respectively the sequences of human KIT and various mutant kinase regions of KIT via PCR, inserting the fragments respectively into MSCV-Puro vectors having a N-terminal TEL fragment and/or a NPM fragment and/or a TPR fragment (purchased from Clontech), transfecting mouse BaF3 cells with the vectors by means of retrovirus to obtain stably transfected cells, removing the growth factor IL-3, and thereby eventually obtaining cell lines that depend on the transferred protein KIT or various mutants of KIT.”
# (§2) The cells after incubation were detected using CCK-8 (purchased from MedChem Express, Shanghai, China) cell viability assay kit (CCK-8 may be reduced by dehydrogenase in living cells to a highly water-soluble yellow formazan product, and the amount of the resultant formazan is proportional to the number of living cells), the number of living cells were quantified with a microplate reader, and GI50 of the compounds and the control compounds were calculated (the results shown in Table 2 and Table 3).
# TEL-KIT/T670I-BaF3 = test: Proliferation of TEL-KIT/T670I-BaF3 cells (CCK-8); format: cell-based, mouse; conditions: Mus musculus; 72 hours, CCK-8; read-out: GI50 TEL-KIT/T670I-BaF3
# Excerpt: Compounds as provided herein were further evaluated for their inhibitory effects on proliferation of cancer cells by testing their effects on growth of cancer cells. In this example the following cells were used: primary mouse B cells BaF3 (purchased from ATCC), GIST-T1 cells of the human gastrointestinal stromal tumor cell line (expressing wild-type KIT gene) (purchased from Cosmo Bio Co., Ltd. (Japan)). The present lab further constructed and used the following: mouse Tel-Kit-BaF3 (stably expressing KIT wild-type kinase), mouse Tel-Kit/T670I-BaF3 (stably expressing KIT T670I mutant kinase), mouse Tel-Kit/V559A-BaF3 (stably expressing KIT V559A mutant kinase), mouse Tel-Kit/V559D-BaF3 (stably expressing KIT V559D mutant kinase), mouse Tel-Kit/V559G-BaF3 (stably expressing KIT V559G mutant kinase), mouse Tel-Kit/V560D-BaF3 (stably expressing KIT V560D mutant kinase), mouse Tel-Kit/L576P-BaF3 (stably expressing KIT L576P mutant kinase), mouse Tel-Kit/V654A-BaF3 (stably expressing KIT V654A mutant kinase), mouse Tel-Kit/V654A/V559D-BaF3 (stably expressing KIT V654A V559D mutant kinase), mouse Tel-Kit/T670E-BaF3 (stably expressing KIT T670E mutant kinase), mouse Tel-Kit/T670I/V559D-BaF3 (stably expressing KIT T670I V559D mutant kinase), mouse Tel-Kit/S709F-BaF3 (stably expressing KIT S709F mutant kinase), mouse Tel-Kit/D816E-BaF3 (stably expressing KIT D816E mutant kinase), mouse Tel-Kit/D816H-BaF3 (stably expressing KIT D816H mutant kinase), mouse Tel-Kit/D820E-BaF3 (stably expressing KIT D820E mutant kinase), mouse Tel-Kit/D820G-BaF3 (stably expressing KIT D820G mutant kinase), mouse Tel-Kit/D820Y-BaF3 (stably expressing KIT D820Y mutant kinase), mouse Tel-Kit/N822K-BaF3 (stably expressing KIT N822K mutant kinase), mouse Tel-Kit/Y823D-BaF3 (stably expressing KIT Y823D mutant kinase), mouse Tel-Kit/A829P-BaF3 (stably expressing KIT A829P mutant kinase), GIST-T1-T670I cells of the human gastrointestinal stromal tumor cell line (expressing KIT-T670I mutant gene). The above cell lines were constructed by: amplifying respectively the sequences of human KIT and various mutant kinase regions of KIT via PCR, inserting the fragments respectively into MSCV-Puro vectors having a N-terminal TEL fragment and/or a NPM fragment and/or a TPR fragment (purchased from Clontech), transfecting mouse BaF3 cells with the vectors by means of retrovirus to obtain stably transfected cells, removing the growth factor IL-3, and thereby eventually obtaining cell lines that depend on the transferred protein KIT or various mutants of KIT. The GIST-T1-T670I (expressing C-KIT-T670I mutant gene) cell line was constructed by our laboratory as follows: designing sgRNA that targeted a region around T670 of the KIT gene with CRISPR Design Tool (website: crispr.mit.edu, Zhang Feng Lab), cloning it into pSpCas9(BB)-2A-Puro vector; co-transfecting cells with the resultant vector and a single-stranded oligonucleotide having T670I site mutation that is near to T670, subjecting the resultant to antibiotics screening, followed by dilution, and monocellular culture in a 96-well plate; validating the site T670 of the cells by sequence detection via Sanger sequencing.
# TEL-KIT/V654A/V559D-BaF3 = test: Proliferation of TEL-KIT/V654A/V559D-BaF3 cells (CCK-8); format: cell-based; conditions: Mus musculus; 72 hours, CCK-8; read-out: GI50 TEL-KIT/V654A/V559D-BaF3
# Excerpt: as §1
# TEL-KIT/N822K-BaF3 = test: Proliferation of TEL-KIT/N822K-BaF3 cells (CCK-8); format: cell-based; conditions: Mus musculus; 72 hours, CCK-8; read-out: GI50 TEL-KIT/N822K-BaF3
# Excerpt: as §1
# TEL-KIT/D820G-BaF3 = test: Proliferation of TEL-KIT/D820G-BaF3 cells (CCK-8); format: cell-based; conditions: Mus musculus; 72 hours, CCK-8; read-out: GI50 TEL-KIT/D820G-BaF3
# Excerpt: as §1
# TEL-KIT/V559D-BaF3 = test: Proliferation of TEL-KIT/V559D-BaF3 cells (CCK-8); format: cell-based; conditions: Mus musculus; 72 hours, CCK-8; read-out: GI50 TEL-KIT/V559D-BaF3
# Excerpt: as §1
# GIST-T1/T670I = test: Proliferation of GIST-T1/T670I cells (CCK-8); format: cell-based; conditions: Homo sapiens, GISTT1; 72 hours, CCK-8; read-out: GI50 GIST-T1/T670I
# Excerpt: as §1, with “gene).” for “gene). The above cell lines were constructed by: amplifying respectively the sequences of human KIT and various mutant kinase regions of KIT via PCR, inserting the fragments respectively into MSCV-Puro vectors having a N-terminal TEL fragment and/or a NPM fragment and/or a TPR fragment (purchased from Clontech), transfecting mouse BaF3 cells with the vectors by means of retrovirus to obtain stably transfected cells, removing the growth factor IL-3, and thereby eventually obtaining cell lines that depend on the transferred protein KIT or various mutants of KIT.”
# as §2
# TEL-KIT/D820E-BaF3 = test: Proliferation of TEL-KIT/D820E-BaF3 cells (CCK-8); format: cell-based; conditions: Mus musculus; 72 hours, CCK-8; read-out: GI50 TEL-KIT/D820E-BaF3
# Excerpt: as §1
# TEL-KIT/V654A-BaF3 = test: Proliferation of TEL-KIT/V654A-BaF3 cells (CCK-8); format: cell-based; conditions: Mus musculus; 72 hours, CCK-8; read-out: GI50 TEL-KIT/V654A-BaF3
# Excerpt: as §1
# TEL-KIT/A829P-BaF3 = test: Proliferation of TEL-KIT/A829P-BaF3 cells (CCK-8); format: cell-based; conditions: Mus musculus; 72 hours, CCK-8; read-out: GI50 TEL-KIT/A829P-BaF3
# Excerpt: as §1
# TEL-KIT/D820Y-BaF3 = test: Proliferation of TEL-KIT/D820Y-BaF3 cells (CCK-8); format: cell-based; conditions: Mus musculus; 72 hours, CCK-8; read-out: GI50 TEL-KIT/D820Y-BaF3
# Excerpt: as §1
# TEL-KIT/S709F-BaF3 = test: Proliferation of TEL-KIT/S709F-BaF3 cells (CCK-8); format: cell-based; conditions: Mus musculus; 72 hours, CCK-8; read-out: GI50 TEL-KIT/S709F-BaF3
# Excerpt: as §1
# TEL-KIT/T670I/V559D-BaF3 = test: Proliferation of TEL-KIT/T670I/V559D-BaF3 cells (CCK-8); format: cell-based; conditions: Mus musculus; 72 hours, CCK-8; read-out: GI50 TEL-KIT/T670I/V559D-BaF3
# Excerpt: as §1
# TEL-KIT/V559A-BaF3 = test: Proliferation of TEL-KIT/V559A-BaF3 cells (CCK-8); format: cell-based; conditions: Mus musculus; 72 hours, CCK-8; read-out: GI50 TEL-KIT/V559A-BaF3
# Excerpt: as §1
# TEL-KIT/V560D-BaF3 = test: Proliferation of TEL-KIT/V560D-BaF3 cells (CCK-8); format: cell-based; conditions: Mus musculus; 72 hours, CCK-8; read-out: GI50 TEL-KIT/V560D-BaF3
# Excerpt: as §1
# TEL-KIT/D816H-BaF3 = test: Proliferation of TEL-KIT/D816H-BaF3 cells (CCK-8); format: cell-based; conditions: Mus musculus; 72 hours, CCK-8; read-out: GI50 TEL-KIT/D816H-BaF3
# Excerpt: as §1
# TEL-KIT/D816E-BaF3 = test: Proliferation of TEL-KIT/D816E-BaF3 cells (CCK-8); format: cell-based; conditions: Mus musculus; 72 hours, CCK-8; read-out: GI50 TEL-KIT/D816E-BaF3
# Excerpt: as §1
# TEL-KIT/T670E-BaF3 = test: Proliferation of TEL-KIT/T670E-BaF3 cells (CCK-8); format: cell-based; conditions: Mus musculus; 72 hours, CCK-8; read-out: GI50 TEL-KIT/T670E-BaF3
# Excerpt: as §1
structure (smiles),measurement,setting,value
"Cc1ccc(NC(=O)c2ccc(CN3CCN(C)CC3)cc2)cc1Nc1nccc(-c2cccnc2)n1 [Imatinib, reference compound]",GI50,TEL-KIT/V559G-BaF3,8 nM
same,GI50,TEL-KIT/Y823D-BaF3,5870 nM
same,GI50,GIST-T1,15 nM
same,GI50,TEL-KIT/T670I-BaF3,> 10000 nM
same,GI50,TEL-KIT/V654A/V559D-BaF3,608 nM
same,GI50,TEL-KIT/N822K-BaF3,1470 nM
same,GI50,TEL-KIT/D820G-BaF3,337 nM
same,GI50,TEL-KIT/V559D-BaF3,10 nM
same,GI50,GIST-T1/T670I,> 10000 nM
same,GI50,TEL-KIT/D820E-BaF3,35 nM
same,GI50,TEL-KIT/V654A-BaF3,1410 nM
same,GI50,TEL-KIT/A829P-BaF3,580 nM
same,GI50,TEL-KIT/D820Y-BaF3,435 nM
same,GI50,TEL-KIT/S709F-BaF3,115 nM
same,GI50,TEL-KIT/T670I/V559D-BaF3,> 10000 nM
same,GI50,TEL-KIT/V559A-BaF3,905 nM
same,GI50,TEL-KIT/V560D-BaF3,3 nM
same,GI50,TEL-KIT/D816H-BaF3,651 nM
same,GI50,TEL-KIT/D816E-BaF3,174 nM
same,GI50,TEL-KIT/T670E-BaF3,4080 nM

# — US12404244B2, “Pan-KIT kinase inhibitor having quinoline structure and application thereof” (Tarapeutics Science Inc., priority 2018, dated 2025)
